Experimental findings from PubChem BioAssay (NCI) are described below.

Assay in all cases: inhibition of tumour cell growth, NCI panel, 48 h
Experiment [1] concerns COLO 205 colon.
Experiment [2] concerns RPMI-8226 leukemia.
Experiment [3] concerns HCC-2998 colon.
The subject of experiment [4] is MOLT-4 leukemia.
For experiment [5], the system named is CCRF-CEM leukemia.
The test system of experiment [6] is OVCAR-8 ovarian.
For experiment [7], the system named is EKVX NSCLC.
Experiment [8] deals with SF-295 CNS.
Experiment [9] relates to DU-145 prostate.

Each structure is given as a SMILES string.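 Following 48 hours of exposure in 96-well plates, responses at five concentrations were used to interpolate endpoints linearly. GI50: concentration for 50% inhibition of growth. TGI is the concentration that stops growth completely.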 A value given as a limit tells only on which side of the number the result lay.

With `COC(=O)C1=C(O)c2cc3c(cc2[C@H](c2cc(OC)c(OC)c(OC)c2)C1C(=O)OC)OCO3` (some centres undefined), the TGI in experiment [1] is 45.7 µM; in [2], over 100 µM; in [3], over 100 µM; in [4], over 100 µM; in experiment [5], over 100 µM; in experiment [6], over 100 µM. The TGI in experiment [7] and in experiment [8] was over 100 µM throughout.
`Cc1c(Cl)cccc1NC1=C(Cl)C(=O)N(Cc2ccccc2)C1=O`: the GI50 in [1] was 22.1 µM; in experiment [2] it was 1.25 µM; in experiment [3] it was 3.12 µM; in [9], 3.67 µM; in [4], 10.1 µM; in experiment [5], 0.392 µM. In addition, the GI50 was 9.23 µM in experiment [6] and 3.01 µM in [8]. The TGI in experiment [1] turned out to be 57.2 µM; in experiment [2], 26.7 µM; in experiment [3], 13.6 µM; in experiment [9] it was 17.1 µM; in experiment [4], 43 µM; in experiment [5], 12.5 µM. The values for the TGI in experiment [6] and in experiment [8] were 23.8 µM and 14.4 µM, respectively.
For `Cc1ccc(Sc2ccc(C)cc2[N+](=O)[O-])c([N+](=O)[O-])c1`, the TGI in [1], in experiment [2], in [3], in [4], in experiment [5] and in experiment [6] was over 100 µM throughout. Also, the TGI in [7] and in [8] was over 100 µM in each case.
For `CC1CCC(C(C)C)C(O[C@@H]2OC(=O)C[C@@H]2Sc2ccccc2)C1` (some centres undefined), the TGI in experiment [1] was 36.8 µM; in experiment [2] it was 34.7 µM; in experiment [3], 55.9 µM; in experiment [4], 32 µM; in [5], 26.8 µM; in [6] it was 45.3 µM. The figures for the TGI in experiment [7] and in [8] were 93.6 µM and 54.6 µM, respectively.
Regarding `CCCOC(=O)CCn1c(SC)nc2[nH]cc(-c3ccccc3)c2c1=O`, the GI50 is 19.1 µM in [1]; 12.7 µM in experiment [2]; 73.5 µM in [3]; 27.8 µM in experiment [9]; 1.16 µM in [4]; 1.37 µM in [5]. The GI50 in experiment [6] is 20.5 µM; in [7] it was 33.9 µM; in experiment [8], 11.1 µM. Further, the TGI is 46.5 µM in experiment [1]; 33.6 µM in [2]; over 100 µM in [3]; over 100 µM in experiment [9]; 15.1 µM in experiment [4]; 35.1 µM in experiment [5]. Also, the TGI in experiment [6] is over 100 µM; in experiment [7], over 100 µM; in [8] it was 52.4 µM.
Turning to `C=C1CCc2occ(C)c2C2C1C1=C(CC(C)C1=O)C1OC12C` (centres undefined), the TGI in experiment [1], in [3], in [4], in experiment [5], in experiment [6] and in [7] was over 100 µM throughout. This molecule also came in with a TGI in experiment [8] of over 100 µM.
Regarding `O=C1CCC2(c3ccccc3)Nc3ncccc3N12` (centres undefined), the TGI in [1], in experiment [2], in [3], in experiment [4], in experiment [5] and in [6] was over 100 µM in each case. Moreover, the TGI in [7] and in experiment [8] was over 100 µM each time.
Turning to `CC#CC1C(OC(=O)c2ccccc2)CCCC1(CI)N=[N+]=[N-]` (centres undefined), the TGI was over 100 µM in experiment [1]; 86.2 µM in experiment [2]; over 100 µM in [3]; 44.4 µM in [4]; over 100 µM in experiment [5]; over 100 µM in [6]. The TGI in [7] and in [8] was over 100 µM each time.
Regarding `CS/C(C)=N/OC(=O)NCCCCNc1ccc(N=[N+]=[N-])cc1`, the TGI in experiment [1] was over 100 µM; in [2], over 100 µM; in experiment [3], 56.1 µM; in experiment [4], over 100 µM; in [5] it was over 100 µM; in experiment [6], over 100 µM. The TGI in [7] and in experiment [8] was over 100 µM throughout.
As for `C=C1CCC2[C@@H](CCC3[C@]2(C)CCC[C@]3(C)C(=O)OC)C1CCO` (some centres undefined), the TGI turned out to be 27.9 µM in experiment [1]; 17 µM in experiment [2]; 17.9 µM in [4]; 33.1 µM in experiment [5]; 37.7 µM in experiment [6]; 37.9 µM in experiment [7]. This molecule showed a TGI in experiment [8] of 30.9 µM.
Take `N.N.NCCCCCCN.O=C([O-])CC(=O)[O-].O=C([O-])CC(=O)[O-].[Pt+4].[Pt+4]`: the GI50 was 27.7 µM in experiment [1]; over 100 µM in experiment [2]; over 100 µM in experiment [3]; 5.2 µM in experiment [4]; 15.6 µM in experiment [5]; over 100 µM in [6]. Besides, the GI50 in [7] was over 100 µM; in experiment [8], over 71.6 µM. Besides, the TGI in [1], in experiment [2], in experiment [3], in [4], in experiment [5] and in experiment [6] was over 100 µM each time. Moreover, the TGI in [7] and in experiment [8] was over 100 µM in each case.
With `CC(=O)NC1CC2Oc3ccc(C)cc3C(C)(O2)C1O` (centres undefined), the TGI in experiment [1], in experiment [2], in experiment [4], in experiment [5], in experiment [6] and in experiment [7] was over 100 µM each time. This molecule also displayed a TGI in experiment [8] of over 100 µM.
Regarding `COC(=O)C1=C(C(=O)OC)SC(=C(N=Nc2ccccc2)c2ccccc2)S1`, the TGI in experiment [1], in [2], in experiment [3], in experiment [4], in experiment [5] and in [6] was over 100 µM in each case. In addition, the TGI in experiment [7] and in [8] was over 100 µM in each case.
Take `C[C@@H](NC1CCC[C@H]1O)c1ccccc1` (some centres undefined): the TGI in experiment [1], in [2], in [3], in experiment [4], in experiment [5] and in experiment [6] was over 100 µM throughout. For the same molecule, the TGI in [7] and in [8] was over 100 µM in each case.
Regarding `C/C=C/C=C/CCCCCCCCCCCCCC1(OC)C=CC(CC(=O)OC)OO1` (centres undefined), the GI50 is 1.76 µM in experiment [1]; 3.5 µM in experiment [3]; 7.97 µM in experiment [4]; 2.44 µM in experiment [5]; 3.99 µM in experiment [6]; 5.69 µM in experiment [7]. In experiment [8], the GI50 was 2.58 µM. Besides, the TGI in experiment [1] worked out at 3.19 µM; in experiment [2], 46 µM; in [3], 9.99 µM; in experiment [4], 33.8 µM; in experiment [5] it was 5.8 µM; in [6], 14.5 µM. Moreover, the TGI in experiment [7] was 17.5 µM; in [8], 6.34 µM.
For the molecule `CCN(CC)CC(C(=O)Nc1c(C)cccc1C)/C(C)=N\NC(=O)c1ccncc1` (centres undefined), the TGI in [1], in experiment [3], in experiment [4], in [6] and in experiment [8] was over 100 µM in each case.
Turning to `C1CCOC2(CCC3(CC2)OCCCCO3)OC1`, the TGI in experiment [1], in experiment [2], in [3], in experiment [4], in experiment [5] and in [6] was over 100 µM throughout.
Regarding `C=CC1C(OC2OC(CO)C(O)C(O)C2O)OC=C(C(=O)OC)C1CC=O` (centres undefined), the TGI in experiment [1], in experiment [2], in experiment [4], in experiment [7] and in experiment [8] was over 100 µM in each case.
For `CC(C)C12C=CC(C)(CC1)n1c(=O)c3cc4ccccc4cc3c(=O)n12` (centres undefined), the TGI in experiment [1], in experiment [2], in experiment [3], in experiment [4], in [5] and in [6] was over 100 µM each time. For the same molecule, the TGI in experiment [7] and in [8] was over 100 µM each time.
On to `CCC(=O)N(O)C(C)(C)C`, for which the TGI in [1], in [2], in experiment [3], in experiment [4], in [5] and in [6] was over 100 µM each time. For the same molecule, in experiment [8], the TGI is over 100 µM.
Regarding `CS/C(=N\c1nccs1)NC(=O)c1cccc(Cl)c1`, the TGI is over 100 µM in experiment [1]; over 100 µM in experiment [2]; over 100 µM in experiment [3]; 89.6 µM in experiment [4]; over 100 µM in experiment [5]; over 100 µM in [6]. The TGI in experiment [7] and in [8] was over 100 µM throughout.
For the molecule `O=C(CCc1cc(-c2ccccc2)nc(=S)[nH]1)Nc1ccccc1[N+](=O)[O-]`, the TGI in experiment [1], in experiment [2], in experiment [3], in [4], in experiment [5] and in [6] was over 100 µM in each case. Besides, the TGI in experiment [7] and in experiment [8] was over 100 µM each time.
For `N#Cc1cc([N+](=O)[O-])ccc1NC(=O)/C(=N/N)C(C(=O)c1ccc(Cl)c(Cl)c1)C1OC(=O)c2ccccc21` (centres undefined), the TGI in [1], in [2], in experiment [3], in experiment [4], in experiment [5] and in experiment [6] was over 100 µM throughout. Further, the TGI in experiment [7] and in [8] was over 100 µM throughout.
Take `C=CCNC(=O)NCCCC(NC(C)=O)C(=O)NCc1ccccc1` (centres undefined): the TGI in [1], in [2], in experiment [4], in [5], in experiment [6] and in experiment [7] was over 100 µM each time. Also, in [8], the TGI was over 100 µM.
On to `COc1cccc2nc3cc(C)c(C)cc3nc12`, for which the TGI in experiment [1], in experiment [3], in experiment [4], in experiment [5], in [6] and in experiment [7] was over 100 µM each time. In [8], the TGI is over 100 µM.
As for `CCC1CCc2c(OC)ccc(OCC(=O)O)c2C1=O` (centres undefined), the TGI in [1], in experiment [2], in [3], in experiment [4], in experiment [5] and in [6] was over 100 µM each time. The TGI in experiment [7] and in experiment [8] was over 100 µM in each case.
As to `COC(=O)c1cc(-c2cccn2C)c2c(c1C(=O)OC)c1ccccc1n2C`, the TGI was over 100 µM in [1]; over 100 µM in experiment [2]; over 100 µM in [3]; 29.3 µM in [4]; over 100 µM in experiment [6]; over 100 µM in experiment [8].
In the case of `O=c1[nH]c(-c2ccc(-c3nc4cc([N+](=O)[O-])ccc4c(=O)[nH]3)cc2)nc2cc([N+](=O)[O-])ccc12`, the TGI in experiment [1], in experiment [2], in experiment [3], in [4], in experiment [5] and in [6] was over 100 µM each time. Moreover, the TGI in [7] and in experiment [8] was over 100 µM throughout.
`CCCC(Sc1ccccc1)P(=O)(c1ccccc1)c1ccccc1` (centres undefined): the TGI is over 100 µM in experiment [1]; 51.8 µM in experiment [2]; 52.2 µM in [4]; over 100 µM in experiment [5]; over 100 µM in [6]; 84.1 µM in [7]. In [8], this molecule returned a TGI of over 100 µM.
Take `C=CCC(OCCOCC)c1cc(OCCOCC)ccc1OC` (centres undefined): the TGI in experiment [1], in [2], in experiment [3], in [4], in experiment [5] and in experiment [6] was over 100 µM in each case. Further, the TGI in [7] and in experiment [8] was over 100 µM each time.
As to `COc1cc(/C=C/C(=O)c2sc(NNC(C)=O)nc2C)ccc1O`, the TGI in experiment [1], in [2], in [3], in [4], in experiment [5] and in experiment [6] was over 100 µM in each case. For the same molecule, the TGI in [7] and in experiment [8] was over 100 µM in each case.
